From patent US20260022096A1, “NOVEL SULFONAMIDES AND THEIR USE AS NEUROPROTECTIVE AND/OR NEURORESTORATIVE AGENTS” (GENECODE, priority 2022, published 2026)

Molecular target: T1, GFRα1-RET (Homo sapiens, UniProt P56159)
T1 construct: expressed in transfected cells; host or cells: MG87 murine fibroblasts, stably transfected
T1 sequence (P56159 25-429 limits assumed): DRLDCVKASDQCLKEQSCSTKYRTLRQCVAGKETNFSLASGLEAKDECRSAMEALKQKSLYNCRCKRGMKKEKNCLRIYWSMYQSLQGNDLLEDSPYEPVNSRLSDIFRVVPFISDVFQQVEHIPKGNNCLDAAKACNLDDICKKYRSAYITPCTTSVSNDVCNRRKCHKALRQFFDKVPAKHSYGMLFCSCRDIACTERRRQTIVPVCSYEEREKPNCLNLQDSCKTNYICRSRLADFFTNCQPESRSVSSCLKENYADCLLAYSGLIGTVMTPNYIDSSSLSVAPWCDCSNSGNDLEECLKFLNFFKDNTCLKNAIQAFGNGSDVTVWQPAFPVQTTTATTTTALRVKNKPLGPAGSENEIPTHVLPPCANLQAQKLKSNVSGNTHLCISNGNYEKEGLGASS
Assay: Elk1 reporter-gene (luciferase) assay in cells expressing GFRα1-RET
Type: cell-based
Details: MG87 murine fibroblasts stably transfected with PathDetect Elk-1, GFRα1 and RET, 6 concentrations, agonist/activator activity
Procedure: For ECso determination, a dose-response test was performed using 6 concentrations of each tested compound. Dose-response curves were fitted using the sigmoidal dose-response (variable slope) analysis in GraphPad Prism program (Graph Pad Inc) and ECso of agonist/activator activity was calculated. Dose-response experiments were all performed in duplicate, two times independently.

| SMILES | EC50 |
| --- | --- |
| O=C(c1ccc(F)cc1Cl)N1C[C@H]2CC[C@@H](C1)N2c1cc(S(=O)(=O)N2CCC(c3ccc(F)cc3)CC2)cc(F)c1O [compound 084, (2-chloro-4-fluoro-phenyl)-[(1S,5R)-8-[3-fluoro-5-[[4-(4-fluorophenyl)-1-piperidyl]sulfonyl]-2-hydroxy-phenyl]-3,8-diazabicyclo[3.2.1]octan-3-yl]methanone] | < 1000 nM |
| O=C(c1ccc(F)cc1Cl)N1C[C@H]2CC[C@@H](C1)N2c1cc(S(=O)(=O)N2CCN(CCc3ccc(Cl)cc3)CC2)ccc1OCCO [compound 078, (2-chloro-4-fluoro-phenyl)-[(1S,5R)-8-[5-[4-[2-(4-chlorophenyl)ethyl]piperazin-1-yl]sulfonyl-2-(2-hydroxyethoxy)phenyl]-3,8-diazabicyclo[3.2.1]octan-3-yl]methanone] | < 1000 nM |
| CC1(NS(=O)(=O)c2cc(Cl)c(O)c(N3[C@@H]4CC[C@H]3CN(C(=O)c3ccc(F)cc3Cl)C4)c2)COC1 [compound 108] | 1000 to 10000 nM |
| CN(C)c1ccc(S(=O)(=O)N2CCC(c3ccccc3)CC2)cc1N1[C@@H]2CC[C@H]1CN(C(=O)c1cc(F)c(F)cc1Cl)C2 [compound 122, (2-chloro-4,5-difluoro-phenyl)-[(1S,5R)-8-[2-(dimethylamino)-5-[(4-phenyl-1-piperidyl)sulfonyl]phenyl]-3,8-diazabicyclo[3.2.1]octan-3-yl]methanone] | < 1000 nM |
| CC(C)(C)NS(=O)(=O)c1cc(Cl)c(O)c(N2[C@@H]3CC[C@H]2CN(C(=O)c2ccc(F)cc2Cl)C3)c1 [compound 095, N-tert-butyl-3-chloro-5-[(1S,5R)-3-(2-chloro-4-fluoro-benzoyl)-3,8-diazabicyclo[3.2.1]octan-8-yl]-4-hydroxy-benzenesulfonamide] | < 1000 nM |
| COc1ccc(S(=O)(=O)N2CCC(Cc3ccccc3)CC2)cc1N1C2CCC1CN(C(=O)c1ccc(F)cc1Cl)C2 (racemic) [compound 025, (2-chloro-4-fluoro-phenyl)-[rac-(1S,5S)-8-[5-[(4-benzyl-1-piperidyl)sulfonyl]-2-methoxy-phenyl]-3,8-diazabicyclo[3.2.1]]octan-3-yl]methanone] | 1000 to 10000 nM |
| COc1ccc(S(=O)(=O)N2CCC(Cc3ccccc3)CC2)cc1N1CCN(C(=O)c2ccc(F)cc2C(F)(F)F)CC1C (racemic) [compound 018, [4-fluoro-2-(trifluoromethyl)phenyl]-[rac-(3S)-4-[5-[(4-benzyl-1-piperidyl)sulfonyl]-2-methoxy-phenyl]-3-methyl-piperazin-1-yl]methanone] | 1000 to 10000 nM |
| COc1ccc(S(=O)(=O)N(C)C(C)(C)C)cc1N1[C@@H]2CC[C@H]1CN(C(=O)c1cc(F)c(F)cc1Cl)C2 [compound 054, N-tert-butyl-3-[(1S,5R)-3-(2-chloro-4,5-difluoro-benzoyl)-3,8-diazabicyclo[3.2.1]octan-8-yl]-4-methoxy-N-methyl-benzenesulfonamide] | 1000 to 10000 nM |
| CCN(CC)S(=O)(=O)c1cnc(OC)c(N2[C@@H]3CC[C@H]2CN(C(=O)c2ccc(F)cc2Cl)C3)c1 [compound 033, 5-[(1S,5R)-3-(2-chloro-4-fluoro-benzoyl)-3,8-diazabicyclo[3.2.1]octan-8-yl]-N,N-diethyl-6-methoxy-pyridine-3-sulfonamide] | 1000 to 10000 nM |
| COc1ccc(S(=O)(=O)N2CCN(c3ccccc3)CC2)cc1N1[C@@H]2CC[C@H]1CN(C(=O)c1cc(F)c(F)cc1Cl)C2 [compound 051] | < 1000 nM |
| O=C(c1ccc(F)cc1Cl)N1C[C@H]2CC[C@@H](C1)N2c1cc(S(=O)(=O)N2CCC(c3ccccc3)CC2)ccc1CO [compound 070, (2-chloro-4-fluoro-phenyl)-[(1S,5R)-8-[2-(hydroxymethyl)-5-[(4-phenyl-1-piperidyl)sulfonyl]phenyl]-3,8-diazabicyclo[3.2.1]octan-3-yl]methanone] | < 1000 nM |
| CC1(NS(=O)(=O)c2cc(Cl)c(O)c(N3[C@@H]4CC[C@H]3CN(C(=O)c3ccc(F)cc3Cl)C4)c2)CCC1 [compound 102, 3-chloro-5-[(1S,5R)-3-(2-chloro-4-fluoro-benzoyl)-3,8-diazabicyclo[3.2.1]octan-8-yl]-4-hydroxy-N-(1-methylcyclobutyl) benzenesulfonamide] | < 1000 nM |
| O=C(c1ccc(F)cc1Cl)N1C[C@H]2CC[C@@H](C1)N2c1cc(S(=O)(=O)N2CCC(CCc3ccccc3)CC2)ccc1O [compound 062] | < 1000 nM |
| COc1ccc(S(=O)(=O)N2CCC(N(C)c3ccccc3)C2)cc1N1C2CCC1CN(C(=O)c1ccc(F)cc1Cl)C2 (racemic) [compound 127, (2-chloro-4-fluoro-phenyl)-[(1S,5R)-8-[2-methoxy-5-[(3SR)-3-(N-methylanilino)pyrrolidin-1-yl]sulfonyl-phenyl]-3,8-diazabicyclo[3.2.1]octan-3-yl]methanone] | < 1000 nM |
| COCCOc1c(Cl)cc(S(=O)(=O)N(C)C(C)(C)C)cc1N1[C@@H]2CC[C@H]1CN(C(=O)c1ccc(F)cc1Cl)C2 [compound 135, N-tert-butyl-3-chloro-5-[(1S,5R)-3-(2-chloro-4-fluoro-benzoyl)-3,8-diazabicyclo[3.2.1]octan-8-yl]-4-(2-methoxyethoxy)-N-methyl-benzenesulfonamide] | < 1000 nM |
| CC(NS(=O)(=O)c1cc(Cl)c(O)c(N2C3CCC2CN(C(=O)c2ccc(F)cc2Cl)C3)c1)C(F)(F)F (racemic) [compound 104, 3-chloro-5-[(1S,5R)-3-(2-chloro-4-fluoro-benzoyl)-3,8-diazabicyclo[3.2.1]octan-8-yl]-4-hydroxy-N-[(1SR)-2,2,2-trifluoro-1-methyl-ethyl]benzenesulfonamide] | 1000 to 10000 nM |
| CN(C1COC1)S(=O)(=O)c1cc(Cl)c(O)c(N2[C@@H]3CC[C@H]2CN(C(=O)c2ccc(F)cc2Cl)C3)c1 [compound 109, 3-chloro-5-[(1S,5R)-3-(2-chloro-4-fluoro-benzoyl)-3,8-diazabicyclo[3.2.1]octan-8-yl]-4-hydroxy-N-methyl-N-(oxetan-3-yl)benzenesulfonamide] | 1000 to 10000 nM |
| COc1ccc(S(=O)(=O)N2CCCC(Cc3ccccc3)C2)cc1N1C2CCC1CN(C(=O)c1ccc(F)cc1Cl)C2 (racemic) [compound 011, [(1S,5R)-8-[5-[[(3RS)-3-benzyl-1-piperidyl]sulfonyl]-2-methoxy-phenyl]-3,8-diazabicyclo[3.2.1]]octan-3-yl]-(2-chloro-4-fluoro-phenyl)methanone] | < 1000 nM |
| COc1ccc(S(=O)(=O)N2CCN(CC(C)c3ccc(F)cc3)CC2)cc1N1C2CCC1CN(C(=O)c1ccc(F)cc1Cl)C2 (racemic) [compound 045, (2-chloro-4-fluoro-phenyl)-[(1S,5R)-8-[5-[4-[(2RS)-2-(4-fluorophenyl)propyl]piperazin-1-yl]sulfonyl-2-methoxy-phenyl]-3,8-diazabicyclo[3.2.1]octan-3-yl]methanone] | < 1000 nM |
| CCCN(C)S(=O)(=O)c1ccc(C)c(N2[C@@H]3CC[C@H]2CN(C(=O)c2ccc(F)cc2Cl)C3)c1 [compound 068, 3-[(1S,5R)-3-(2-chloro-4-fluoro-benzoyl)-3,8-diazabicyclo[3.2.1]octan-8-yl]-N,4-dimethyl-N-propyl-benzenesulfonamide] | < 1000 nM |
| COc1ccc(S(=O)(=O)N2CCC(=Cc3ccccc3)CC2)cc1N1[C@@H]2CC[C@H]1CN(C(=O)c1cc(F)c(F)cc1Cl)C2 [compound 053, [(1S,5R)-8-[5-[(4-benzylidene-1-piperidyl)sulfonyl]-2-methoxy-phenyl]-3,8-diazabicyclo[3.2.1]octan-3-yl]-(2-chloro-4,5-difluoro-phenyl)methanone] | < 1000 nM |
| O=C(c1ccc(F)cc1Cl)N1C[C@H]2CC[C@@H](C1)N2c1cc(S(=O)(=O)N2CCC(c3ccccc3)CC2)cc2c1OCO2 [compound 117, (2-chloro-4-fluoro-phenyl)-[(1S,5R)-8-[6-[(4-phenyl-1-piperidyl)sulfonyl]-1,3-benzodioxol-4-yl]-3,8-diazabicyclo[3.2.1]octan-3-yl]methanone] | < 1000 nM |
| N#Cc1ccc(S(=O)(=O)N2CCC(c3ccccc3)CC2)cc1N1[C@@H]2CC[C@H]1CN(C(=O)c1ccc(F)cc1Cl)C2 [compound 125] | < 1000 nM |
| COc1ccc(S(=O)(=O)N2CCN(CCc3ccc(Cl)cc3)CC2)cc1N1[C@@H]2CC[C@H]1CN(C(=O)c1ccc(F)cc1Cl)C2 [compound 048, (2-chloro-4-fluoro-phenyl)-[(1S,5R)-8-[5-[4-[2-(4-chlorophenyl)ethyl]piperazin-1-yl]sulfonyl-2-methoxy-phenyl]-3,8-diazabicyclo[3.2.1]octan-3-yl]methanone] | < 1000 nM |
| COc1ccc(S(=O)(=O)N(C)CCCF)cc1N1CCN(C(=O)c2ccc(F)cc2Cl)CC1C (racemic) [compound 038, N-(3-fluoropropyl)-4-methoxy-N-methyl-3-[rac-(2S)-4-(2-chloro-4-fluoro-benzoyl)-2-methyl-piperazin-1-yl]benzenesulfonamide] | 1000 to 10000 nM |
| CCCN(C)S(=O)(=O)c1ccc(OC)c(N2CCN(C(=O)c3ccc(F)cc3C(F)(F)F)CC2CC)c1 (racemic) [compound 017, 4-methoxy-N-methyl-N-propyl-3-[rac-(2S)-2-ethyl-4-[4-fluoro-2-(trifluoromethyl)benzoyl]piperazin-1-yl]benzenesulfonamide] | 10000 to 50000 nM |
